Row | Structure (SMILES) | melting point [°C]
1 | CC(C)(C)OC(=O)c1ccc(OCCNC(=O)C2Cc3ccccc3N2S(=O)(=O)c2ccc(-c3ccc(F)cc3OC(F)F)cc2)cc1 (centres undefined) | 60 to 70
2 | Cc1cc(COc2ccc(S(=O)(=O)NC[C@@H](C(=O)NO)N3CCN(C(=O)OCc4ccccc4)CC3)cc2)c2ccccc2n1 | 162
3 | CC(=O)NC1CCC(Nc2ncc3c(N)cc(=O)n(CCCO)c3n2)CC1 (centres undefined) | > 300
4 | Cc1oc2c(C)c(C)c(N3C(=O)c4ccccc4C3=O)c(C)c2c1-c1ccc(C(C)C)cc1 | 232 to 234
5 | Cc1nn(-c2ccc(F)cc2)cc1C(=O)O | 194 to 195
6 | O=C(Nc1ccc(OCCN2CCOCC2)c2ccccc12)c1cc(F)cc(OC2CCCCC2)c1 | 116 to 118
7 | CN1CCCC(c2cccc3ccc(N)cc23)C1 (centres undefined) | 117 to 120
8 | CCN(CC)C(=O)c1c(C=O)cccc1[Si](C)(C)C | 63.5 to 65.5
9 | C[C@@H]1Cc2ccsc2[C@H](c2ccccc2)N1CCNS(=O)(=O)c1ccc(NS(C)(=O)=O)cc1 (relative stereo) | 155 to 158
10 | COc1ccc(-c2nc(CCl)cs2)cc1 | 125 to 128
11 | Cc1cc2[nH]c(C)nc(N3CCOCC3)c-2n1 | 242 to 243
12 | CCOC(=O)Nc1cc2c(cn1)[nH]c1ccccc12 | 222 to 224
13 | COC(=O)CC(=O)c1cc(F)c(OC)c(F)c1 | 64 to 67
14 | CCOc1nc(N)c2ncn(C3CCCCC3)c2n1 | 134 to 136
15 | Cc1ccc(S(=O)(=O)Oc2ccc(C(C)(C)C)cc2C(C)(C)C)cc1 | 81
16 | COc1ccc2cc(C(=O)O)n(CCNC(C)=O)c2c1 | 210 to 211
17 | O=C(c1ccccn1)c1cnn2c(-c3cccc(C(F)(F)F)c3)ccnc12 | 166 to 167
18 | COc1ccc(C(=O)C2CCC(C)(C(=O)O)C2(C)C)cc1 (centres undefined) | 165 to 166
19 | N#CCN1CCCC(OC(c2ccccc2)c2ccccc2)C1 (centres undefined) | 97 to 99
20 | COc1cc2c(-c3ccnc(Cl)c3)c(CO)c(CO)cc2cc1OC(C)C | 129 to 131
21 | CC(C#N)=C1CCC2C3CCC4=CC(=O)CCC4(C)C3CCC12C (centres undefined) | 195 to 196
22 | CC(=O)NCC1CC(c2cc(F)c(-n3ccnc3)c(F)c2)=NO1 (single isomer, unassigned; (-)) | 168 to 169
23 | O=S(=O)(c1cccs1)N(c1cccc2cc(C3=NCC(CN4CCOCC4)S3)[nH]c12)C(F)F (centres undefined) | 185 to 186

Row | Structure (SMILES) | melting point [°C]
24 | O=c1n(CO)c2cccnc2n1-c1ccc2c(c1)OCO2 | 268
25 | O=C(O)c1cn(C2CC2)c2c(F)c(N3C[C@H](CF)[C@H](NC(=O)C(F)(F)F)C3)c(F)c(F)c2c1=O (relative stereo) | 283 to 284
26 | CC(C)(C)OC(=O)Oc1ccc(C(C(=O)OC(c2ccccc2)c2ccccc2)N2CC(NC(=O)OCc3ccccc3)C2=O)cc1 (centres undefined) | 153 to 154
27 | COc1ccc(-c2cc(C(N)=O)c(=O)n(CC3CCCC3)n2)cc1 | 182 to 183
28 | COc1c(C2CCN(CCCCNC(=O)c3ccc(-c4ccc(NS(=O)(=O)CC(F)(F)F)cc4)cc3)CC2)ccc2c1CCCC2 | 182 to 184
29 | CC1(C)C2CC[C@]1(C)C(=O)C(C(=O)Nc1cccc([N+](=O)[O-])c1)C2=O (some centres undefined) | 100 to 102
30 | Oc1ccccc1-c1nc(-c2ccccc2O)n(Cc2ccccc2)n1 | 166 to 168
31 | Oc1cccc2ccc(N3CCN(c4nc5ccc(C(F)(F)F)cc5[nH]4)CC3)nc12 | 191 to 193
32 | COc1nc(C)nc(NC(=O)NS(=O)(=O)c2cccc3c2OC(C)(C)O3)n1 | 160 to 168
33 | O=c1[nH]c2ccccc2cc1CN1CC=C(CCc2ccccc2)CC1 | 177 to 179
34 | Sc1nc2cnccc2[nH]1 | > 320
35 | CCCCc1nn(-c2cc(N)ccc2C(F)(F)F)c(=O)n1Cc1ccc(-c2ccccc2S(=O)(=O)NC(=O)OC(C)(C)C)cc1 | 154 to 156
36 | NCc1ccc(-c2csc(N=C(N)N)n2)o1 | 160 to 163
37 | COc1ccc(CC(=O)Cc2ccc(OC)cc2)cc1 | 75 to 76
38 | CCOC(=O)c1cc(=O)cc(-c2ccc(S(C)(=O)=O)cc2)o1 | 176 to 179
39 | CNCC1Cc2cc(F)cc(-c3c(Cl)cccc3Cl)c2O1 (centres undefined) | 140 to 142
40 | CC(C)=CC#Cc1cc(C)cc(Oc2cc(C(F)(F)F)nn2C)n1 | 85
41 | CC1=Nc2ccc(-c3sc(C#N)cc3C)cc2C2(CCCC2)O1 | 58 to 60
42 | CN1CCN(c2cc3c(cc2F)c(=O)c(C(=O)O)cn3C2CC2)CC1c1ccco1 (centres undefined) | 122 to 124
43 | Cc1c2n(c(=O)n(Cc3ccccc3)c1=O)CCCS2 | 141 to 142
44 | CCOC(=O)CCc1cc(O)nn1CC | 91 to 92
45 | CCOC(=O)N1CCc2nnc(N(C)N)cc2C1 | 121 to 123
46 | CCOC(=O)CCNC(=O)C(Cc1ccc(-c2ccccc2)cc1)N(CP(=O)(O)O)C(OC(=O)Cc1ccccc1)C(C)C (centres undefined) | 148 to 150

Row | Structure (SMILES) | melting point [°C]
47 | C#CCOc1cc(-n2c(=O)cc(C(F)(F)F)n(C)c2=O)c(F)cc1Br | 134
48 | Cc1cccc(-c2nc3ccccn3c2-c2ccnc(-c3ccc(C(=O)NC4CCOCC4)cc3)c2)n1 | 128
49 | CC(=NN(C)c1ccc(C(F)(F)F)cc1)C(=O)NCc1ccc(Cl)cc1 | 112 to 113
50 | CC(OCCCNC(=O)c1coc(-c2ccc(/C(=C\CCCCC(=O)O)c3cccnc3)cc2)n1)C1CCCCC1 (centres undefined) | 80 to 85
51 | CC(NC(=O)CCCBr)c1ccccc1 (centres undefined) | 62 to 63
52 | Cc1nc(-n2ccc(O)cc2=O)sc1C(=O)NCCC1CC1 | 234 to 236
53 | CC(C)(C)OC(=O)n1c2ccccc2c(=O)n1Cc1cccc(N)c1 | 155
54 | Cc1cc(O)c2c(c1)C(C)(C)CCC2(C)C | 133 to 134
55 | CCCC(=O)c1cnc2ccccc2c1Nc1ccccc1OC | 167 to 168
56 | CCCCOc1ccc(S(=O)(=O)C2(C(=O)O)CCN(CCCOc3ccccc3)CC2)cc1 | 84
57 | CC(=O)NC(=O)OC[C@]1(C)S[C@@H]2[C@H](NC(=O)COc3ccccc3)C(=O)N2[C@H]1C(=O)OCc1ccc([N+](=O)[O-])cc1 | 83 to 85
58 | Cn1nc(C(C)(C)c2ccc(Cl)cc2)nc1-c1c(F)cccc1Cl | 97 to 100
59 | O=C(O)C1CCNC2CCCCC21 (centres undefined) | > 300
60 | O=C(Nc1cc(-c2ccc(Cl)cc2)on1)c1c(Cl)cccc1Cl | 228 to 229
61 | N#CS/C=C\C(=O)Oc1ccccc1 | 79 to 83
62 | COc1ccc(NC(=O)/C=C/c2cc(OC)c(OC)c(OC)c2)cc1N | 202 to 204
63 | Cc1nc2c3c(c(C(=O)NN4CC4)cc2n1C)CCC(c1ccccc1)N3 (centres undefined) | 192 to 193
64 | COC(=O)Cc1nc(-c2ccc(Cl)cc2)oc1-c1ccsc1 | 127 to 128
65 | O=C(C(=O)N1CCC(Oc2cccc(Cl)c2)CC1)c1c[nH]c2ccccc12 | 145 to 147
66 | CCCCCCCCCCC1(CCCCCCCCCC)c2cc(Br)ccc2-c2ccc(N(c3ccccc3)c3ccccc3)cc21 | 66.8 to 69.2
67 | COc1cccc2c1OC(COS(=O)(=O)c1ccc(C)cc1)CC2 (centres undefined) | 115 to 117
68 | CC[C@@H]1NC(=O)C[C@]1(C)O | 87 to 111
69 | Cc1ccc(C=Cc2ccccc2C(=O)O)cc1 | 80 to 82

Source: a melting point compilation (Tetko et al.; mined from patent text by program, amines drawn as free bases though some values may be those of a salt)
